Results reported in US4200629A, “Anti-fungal substance and preparing method thereof” (priority 1977, dated 1980).
Counter-ions that a name gives are not always drawn.

How the values were obtained:
[1] = system: Candida albicans; experiment: inhibitory effect, antifungal test disk (Test Example 2); type: cell-based; conditions: 8 mm disk, 0.005 g active ingredient
Text: (§1) Each test fungal liquid was mixed with a Sabouraud's agar medium containing 0.1% of Tween 80 to form a multilayered fungal agar film, which was then solidified.

[2] = system: Trichophyton mentagrophytes; experiment: as above; type: cell-based; conditions: 8 mm disk, 0.005 g active ingredient
Text: as §1

[3] = system: Aspergillus fumigatus; experiment: as above; type: cell-based; conditions: 8 mm disk, 0.005 g active ingredient
Text: as §1

[4] = system: Cryptococcus neoformans; experiment: as above; type: cell-based; conditions: 8 mm disk, 0.005 g active ingredient
Text: as §1

[5] = solubility in phosphate buffer solution
[6] = acute toxicity, LD50 oral; conditions: mouse, in vivo, comparison with NT-72 orally in mice, source not stated
[7] = system: medical fungi (Aspergillus, Candida, Trichophyton); experiment: growth inhibition of fungi (general statements); type: cell-based
Method: Each of the components is separated and tested with respect to the activity of growth inhibition of Aspergillus fumigatus, Candida albicans and Trichophyton mentagrophytes, respectively, according to the disk method.
Using 0.01 ml. of the resulting solution, the growth inhibitory effect of each powder against fungi was tested according to the disk method.

Row | SMILES | inhibitory circle diameter [1] | inhibitory circle diameter (Trace) [1] | inhibitory circle diameter [2] | inhibitory circle diameter [3] | inhibitory circle diameter (Trace) ([3]; trace) | inhibitory circle diameter (Trace) ([4]; trace) | solubility in the phosphate buffer solution [5] | inhibitory circle diameter [4] | LD50 [6] | activity of butanol extract after sodium borohydride reduction [7]
1 | C[C@@H]1[C@H](O)[C@@H](C)/C=C/C=C/C=C/C=C/C=C/C=C/C=C/[C@H](O[C@@H]2O[C@H](C)[C@@H](O)[C@H](N)[C@@H]2O)C[C@@H]2O[C@](O)(C[C@@H](O)C[C@@H](O)[C@H](O)CC[C@@H](O)C[C@@H](O)CC(=O)O[C@H]1C)C[C@H](O)[C@H]2C(=O)O [Amphotericin B] | 11 mm | 14 mm | 8.5 mm |  |  |  |  |  |  | 
2 | Clc1ccccc1C(c1ccccc1)(c1ccccc1)n1ccnc1 [Byb 5097] | 17 mm | 22 mm | 24 mm | 12.5 mm | 18 mm | 18 mm | not sufficiently soluble |  |  | 
3 | C[C@@H]1[C@H](O)[C@@H](C)/C=C/C=C/CC/C=C/C=C/C=C/C=C/C(O[C@H]2O[C@H](C)[C@@H](O)[C@H](N)[C@@H]2O)CC2O[C@](O)(CC(O)C(O)CCC(O)CC(O)CC(O)CC(=O)O[C@H]1C)CC(O)C2C(=O)O (some centres unmarked) [Nystatin] | 21 mm |  | 12.5 mm | 12 mm |  |  | not sufficiently soluble | 11 mm |  | 
4 | COc1ccc2cc3[n+](cc2c1OC)CCc1cc2c(cc1-3)OCO2 [berberine hydrochloride] |  |  |  |  |  |  |  |  | 60 to 70 mg/kg | does not show the activity
